How the values were obtained:
[1] = system: SUMOylation of His-RanGap (SUMO-E1 (SAE), SUMO-E2 (UBC9), GST-SUMO); test: HTRF assay measuring increase in SUMOylation of His-RanGap; assay type: biochemical; conditions: His-RanGap substrate; HTRF 665/620 ratio; 70 nl of 2 mM compound in DMSO per well; 30 min at room temperature; triplicate
Experimental: Assay measuring increase in SUMOylation of His-RanGap. We utilized an HTRF assay containing SUMO-E1 (SAE), SUMO-E2 (UBC9), GST-SUMO and His-RanGap, a known SUMO substrate, as well as the respective fluorescent antibodies. The assay was run in 1536-well plate format and the selected activators were chosen based on their ability to increase the FRET signal over a baseline level. In 1536-well white plates, 2 μl of phosphate buffered saline (assay buffer) was dispensed into columns 1 and 2, and 2 μl of Mixture 1 (37.5 nM E1 and 100 nM His-RanGap-1) in assay buffer (50 mM Tris-HCl pH 7.4, 0.3 mM DTT, 10 mM MgCl2, 0.005% Tween-20), was dispensed into columns 3-48. Using a pintool, 70 nl of 2 mM compounds in DMSO was dispensed to columns 5-48 and 70 nl of DMSO was dispensed to columns 1-4. Using the Thermo Scientific MultiDrop Combi, 2 μL of Mixture 2 (20 mM ATP, 12.5 nM E2 and 30 nM GST-SUMO in buffer) was dispensed to all wells and incubated for 30 min. at room temperature followed by 1 μl of 500 mM KF. Plates were read on a PheraStar in a HTRF mode (Ex: 337 nm; Em: 620/665 nm). The ratio of fluorescence 665 over 620 was utilized as a readout of the assay. Increase in SUMOylation was calculated by comparison to baseline level. Measurements were done in triplicate.

CSM14.1 neuronal cells = test: Rescue of CSM14.1 neurons from thapsigargin-induced cell death (ATPlite cell viability); assay type: cell-based, rat; conditions: 15 μM thapsigargin for 20 h after 2 h preincubation, TG alone causes ~100% cell death
Source text: Ability of compounds to rescue CSM14.1 neurons from thapsigargin-induced cell death. To assess the ability of the compounds to rescue neurons from ER stress-induced cell death, the rat striatal neuroprogenitor cell line CSM14.1 was used. Endoplasmic reticulum (ER) stress has been established as the major cause of neuronal loss in stroke, ischemia, and neurodegeneration (Tajiri, S.; Oyadomari, S.; Yano, S.; Morioka, M.; Gotoh, T.; Hamada, J. I.; Ushio, Y.; Mori, M. Cell Death Differ. 2004, 11, 403-415; Kohno, K.; Higuchi, T.; Ohta, S.; Kumon, Y.; Sakaki, S. Neurosci. Lett. 1997, 224, 17-20; Iadecola, C.; Zhang, F.; Casey, R.; Nagayama, M.; Ross, M. E. J. Neurosci. 1997, 17, 9157-9164). Thus, we used the known ER stress-causing agent thapsigargin (TG) to model the compromised state in vitro. TG causes 100% cell death in most cases, and compounds were assessed for neuroprotection by measuring cell viability when dosed at 10 μM. CSM14.1 cells were recovered from cultures by trypsinization and plated in 96-well plates and incubated overnight at 32° C. 5 μl of test compound was added to achieve a final concentration of […]. Salubrinal and DMSO without compound were used as positive and negative controls, respectively. After 2 h of preincubation, TG-containing DMEM was added to give a final concentration of 15 μM and incubated for an additional 20 h. Cell viability was assessed by a cellular ATP content assay (ATPlite, PerkinElmer Life Sciences).

BGMK cells = test: Rescue of BGMK cells from thapsigargin-induced cell death (CCK-8 cell viability); assay type: cell-based; conditions: for % BGMK Cell Viability after treatment in Presence of 10 μM compound: 2 hr pretreatment, TG 24 hrs, TG alone causes ~100% cell death
Source text: Ability of compounds to rescue BGMK cells from thapsigargin-induced cell death. To assess an orthogonal cell line and further validate the ability of SUMOylation activators to rescue varied cell types, the compounds were also profiled for cytoprotection in BGMK cells. Again, we used the known ER stress-causing agent thapsigargin (TG) to model the compromised state in vitro. BGMKs were subcultured at 1.2×10^4 cells/ml. Wells treated with compound were done so for 2 hr. […] After treatment, all cells were washed and fed fresh DMEM complete media and CCK-8 development vehicle, incubated for 2 hr, and absorbance was measured to assess viability. Controls were DMSO (0% viability) and Salubrinal (47% viability).

Compound	% INCREASE IN SUMOylation over endogenous baseline level [1]	% CSM14.1 Cell Viability after treatment with 15 μM TG in Presence of 10 μM compound (CSM14.1 neuronal cells)	% BGMK Cell Viability after treatment in Presence of 10 μM compound (BGMK cells)	BGMK cell viability (control) (BGMK cells; positive control after thapsigargin injury, DMSO = 0% viability, control concentration not given) [%]
CC(=O)Nc1ccc(S(=O)(=O)Nc2cccc3cccnc23)cc1 [Compound A1, N-(4-(N-(Quinolin-8-yl)sulfamoyl)phenyl)acetamide]	B (B = 21%-30% increase)	B (B = 51%-60% viability)	C (C = 51%-60% viability)	–
O=S(=O)(Nc1cccc2cccnc12)c1ccc(S(=O)(=O)N2CCCC2)cc1 [Compound A2, 4-(Pyrrolidin-1-ylsulfonyl)-N-(quinolin-8-yl)benzenesulfonamide]	D (D = 40%-50% increase in SUMOylation over baseline levels)	C (C = 61%-70% viability of CSM14.1 neurons)	D (D = 61%-70% viability of BGMK cells)	–
O=S(=O)(Nc1cccc2cccnc12)c1ccccc1 [Compound A3, N-(Quinolin-8-yl)benzenesulfonamide]	B (B = 21%-30% increase)	A (A = 40%-50% viability)	A (A = 30%-40% viability)	–
COc1ccc(NS(=O)(=O)c2ccc3ccccc3c2)c2ncccc12 [Compound A4, N-(5-Methoxy-8-quinolinyl)-2-naphthalenesulfonamide]	C (C = 31%-40% increase)	–	–	–
O=[N+]([O-])c1ccccc1S(=O)(=O)Nc1cccc2cccnc12 [Compound A5, 2-Nitro-N-(8-quinolinyl)benzenesulfonamide]	C (C = 31%-40% increase)	–	–	–
Cc1ccc(S(=O)(=O)Nc2cccc3cccnc23)cc1 [Compound A6, 4-Methyl-N-(quinolin-8-yl)benzenesulfonamide]	B (B = 21%-30% increase)	C (C = 61%-70% viability of CSM14.1 neurons)	C (C = 51%-60% viability)	–
Cc1cc(C)n(-c2ccc3cccc(NS(C)(=O)=O)c3n2)n1 [Compound A7, N-[2-(3,5-Dimethyl-1H-pyrazol-1-yl)-8-quinolinyl]methanesulfonamide]	B (B = 21%-30% increase)	–	–	–
CS(=O)(=O)Nc1cccc2cccnc12 [Compound A8, N-(8-Quinolinyl)methanesulfonamide]	B (B = 21%-30% increase)	–	–	–
COc1cc(NS(=O)(=O)c2ccc3ccccc3c2)c2ncccc2c1 [Compound A9, N-(6-Methoxy-8-quinolinyl)-2-naphthalenesulfonamide]	B (B = 21%-30% increase)	–	–	–
COc1cc(NS(=O)(=O)c2ccc(C)cc2)c2ncccc2c1 [Compound A10, N-(6-Methoxy-8-quinolinyl)-4-methylbenzenesulfonamide]	C (C = 31%-40% increase)	–	–	–
O=C(/C=C/c1ccccc1)NC(NC(=S)Nc1cccc2cccnc12)C(Cl)(Cl)Cl (stereo not shown) [Salubrinal, reference compound]	–	–	–	47

From patent US11213701B2, “Neuroprotective quinoline sulfonamides” (priority 2018, dated 2022)
